Measured values: patent US20250213573A1, “PHARMACEUTICAL COMPOSITION COMPRISING JAK INHIBITOR, PREPARATION METHOD THEREFOR AND USE THEREOF” (BEIJING MAXINOVEL PHARMACEUTICALS CO., LTD., priority 2022, published 2025)

Test: Saturation solubility test of the compound of formula I in different solvents
Assay type: physicochemical
Details: thermodynamic from solid
Source text: Example 1: Saturation Solubility Test of the Compound of Formula I in Different Solvents

solubility (aqueous buffer, saturation solubility in pH 2 phosphate buffer): 16 µg/mL
solubility (aqueous buffer, saturation solubility in pH 4 phosphate buffer): 1 µg/mL
solubility (aqueous buffer, saturation solubility in pH 6 phosphate buffer): 1 µg/mL
solubility (aqueous buffer, saturation solubility in pH 8 phosphate buffer): 1 µg/mL
solubility (oil or lipid, saturation solubility in Corn oil): 14 µg/mL
solubility (oil or lipid, saturation solubility in Medium chain triglycerides): 75 µg/mL
solubility (oil or lipid, saturation solubility in Oleic acid): 230 µg/mL
solubility (oil or lipid, saturation solubility in Olive oil): 14 µg/mL
solubility (oil or lipid, saturation solubility in Soybean oil): 18 µg/mL
solubility (organic solvent or mixture, saturation solubility in Anhydrous ethanol): 240 µg/mL
solubility (organic solvent or mixture, saturation solubility in Diethylene glycol monoethyl ether): 14000 µg/mL
solubility (organic solvent or mixture, saturation solubility in Dimethyl sulfoxide): 302000 µg/mL
solubility (organic solvent or mixture, saturation solubility in Ethyl acetate): 2340 µg/mL
solubility (organic solvent or mixture, saturation solubility in Glycerol): 70 µg/mL
solubility (organic solvent or mixture, saturation solubility in Polyethylene glycol 400): 26600 µg/mL
solubility (organic solvent or mixture, saturation solubility in Propylene glycol): 990 µg/mL
solubility (saturation solubility in Pure water): 1 µg/mL
SMILES: CCS(=O)(=O)N1CC(C(CC#N)n2cc(-c3nc(Nc4cnn(C)c4)nc4ccsc34)cn2)C1 (centres unmarked) [Compound of formula I]
